A word on the pIC50: it is −log10 of the IC50, conventionally taken in molar units.

Each structure is given as a SMILES string. pIC50: −log10 of the molar value.

Recombinant human PDK1 enzyme (aa 52-556), sequence (O15530 52-556): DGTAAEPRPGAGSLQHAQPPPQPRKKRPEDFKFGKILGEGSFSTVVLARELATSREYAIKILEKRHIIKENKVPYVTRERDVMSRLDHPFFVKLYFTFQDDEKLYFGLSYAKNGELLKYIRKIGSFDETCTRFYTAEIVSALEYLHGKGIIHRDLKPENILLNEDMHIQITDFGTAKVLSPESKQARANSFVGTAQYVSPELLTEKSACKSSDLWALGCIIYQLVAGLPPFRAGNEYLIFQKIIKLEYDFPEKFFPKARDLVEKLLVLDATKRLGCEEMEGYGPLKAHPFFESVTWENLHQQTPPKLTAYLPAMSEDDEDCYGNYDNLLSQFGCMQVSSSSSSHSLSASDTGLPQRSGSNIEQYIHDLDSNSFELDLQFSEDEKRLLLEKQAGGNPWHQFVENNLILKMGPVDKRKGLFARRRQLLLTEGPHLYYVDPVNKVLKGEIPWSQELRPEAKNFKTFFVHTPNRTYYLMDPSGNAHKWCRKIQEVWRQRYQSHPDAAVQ

The target in this experiment is Recombinant human PDK1 enzyme (aa 52-556) (Homo sapiens (Human), UniProt O15530). The experiment is described as follows: PDK1 kinase assay. It counts as biochemical. To be noted: in vitro kinase assay, His6-PDK1 (aa 52-556), PDKtide, P33-ATP. How it is done:
The activity of the compounds according to the invention on the kinase PDK1 which inhibits the signal transduction pathway is determined in an in vitro kinase assay with recombinantly prepared protein:
Recombinant human PDK1 enzyme (aa 52-556) linked at its N-terminal end to His6 is isolated from baculovirus-infected insect cells. Purified enzyme may be obtained for example from the University of Dundee, Scotland. The following components are combined in a well of a 96-well round-based dish (Greiner bio-one, No. 650101): • 15 μL of compound to be tested in varying concentrations (e.g. starting at 10 μM, and diluted in steps of 1:5) in APT buffer (50 mM Tris/Cl pH 7.5; 0.05% β-mercaptoethanol; 10 mM Mg-acetate; 0.0166% Tween 20; 3.33% DMSO) • 15 μL His6-PDK1 (aa 52-556) 3.33 ng/well) and PDKtide ([…]), synthesised by Pepceuticals Limited, Nottingham, United Kingdom; 25 μM final concentration); His6-PDK1 and PDKtide are together diluted accordingly in assay buffer (50 mM tris pH 7.5, 0.05% β-mercaptoethanol, 10 mM Mg-acetate); PDKtide is present in this mixture as an 83.3 μM solution. These 30 μl are routinely incubated for 30 min at RT. • 20 μL ATP solution (25 μM ATP with 1.0 μCi/well gamma-P33-ATP). The final concentration of Tween 20 is 0.005%.
The reaction is started by adding the ATP solution and the mixture is incubated for 90 min at RT. At the start of the reaction the dishes are shaken gently. The reaction is stopped by the addition of 50 μL/well of 500 mM phosphoric acid (H3PO4) and incubated for about 20 min at RT. The precipitate is transferred by harvesting onto filter plates (96-well microtitre filter plate: UniFilter GF/C; Perkin Elmer; No. 6005174), then washed 6 times with 50 mM H3PO4 and dried at 60° C. Then the plate is stuck down with sealing tape, 25 μL/well of scintillation solution (Microscint 0; Perkin Elmer; No. 6013611) are added and the amount of P33 precipitated is measured using the Wallac Betacounter. The measured data are evaluated using Graphpad Prism software.
On to `CNc1ncnc2cc(F)c(C#CCNC(=O)c3c(C)n(C)n(Cc4ccc(F)c(F)c4)c3=O)cc12` [I-6], for which the pIC50 is 7.17. In the case of `CCN(CC)C(=O)c1cnc2ccc(C#CCNC(=O)c3cncn(Cc4ccc(F)c(F)c4)c3=O)cc2c1` [II-71] it was 6.00; in that of `CCN(CC)c1c(C#N)cnc2ccc(C#CCNC(=O)c3cccn(Cc4ccc(F)c(F)c4)c3=O)cc12` [II-100], 6.56; in that of `CNc1ncnc2ccc(C#CCNC(=O)c3cccn(Cc4ccoc4)c3=O)cc12` [II-51], 6.11. In the case of `CCN(CC)c1ncnc2ccc(C#CCNC(=O)c3cccn([C@H](CO)c4ccccc4)c3=O)cc12` [II-56] it was 8.22. With `CN1CCC(CNc2ncnc3ccc(C#CCNC(=O)c4cccn(Cc5ccc(F)c(F)c5)c4=O)cc23)C1` (stereo not shown) [II-38], the pIC50 is 7.01.

For the compound `O=C(NCC#Cc1ccc2ncc(NC3CCN(C4CC4)CC3)nc2c1)c1cncn(Cc2ccc(F)c(F)c2)c1=O` [I-23], the pIC50 was 8.10. On to `CN1CCCN(c2ncnc3ccc(C#CCNC(=O)c4cccn(Cc5ccc(F)c(F)c5)c4=O)cc23)CC1` [II-29], for which the pIC50 was 6.81.

In the case of `CN(C)CC(C)(C)CNc1cnc2ccc(C#CCNC(=O)c3cncn(Cc4ccc(F)c(F)c4)c3=O)cc2n1` [I-25], the pIC50 was 7.38.

As to `CN1CCC(Nc2cnc3ccc(C#CCNC(=O)c4cncn(Cc5ccc(F)c(F)c5)c4=O)cc3n2)CC1` [I-19], the pIC50 was 8.40. In the case of `CC(C)Nc1c(C#N)cnc2ccc(C#CCNC(=O)c3cccn(Cc4ccc(F)c(F)c4)c3=O)cc12` [II-104] it was 6.83; in that of `CN(C)CCCN(C)c1cnc2ccc(C#CCNC(=O)c3cncn(Cc4ccc(F)c(F)c4)c3=O)cc2n1` [I-13], 7.47. In the case of `COc1ccc(CCNc2ncnc3ccc(C#CCNC(=O)c4cncn(Cc5ccc(F)c(F)c5)c4=O)cc23)cc1OC` [II-8] it was 7.04; in that of `CNC(=O)c1cnc2ccc(C#CCNC(=O)c3cncn(Cc4ccc(F)c(F)c4)c3=O)cc2c1` [II-72], 7.35.

On to `O=C(NCC#Cc1ccc2ncnc(N3CCNCC3)c2c1)c1cncn(Cc2ccc(F)c(F)c2)c1=O` [II-9], for which the pIC50 is 6.35. In the case of `O=C(NCC#Cc1ccc2nccc(OCC3CCCCO3)c2c1)c1cncn(Cc2ccc(F)c(F)c2)c1=O` (stereo not shown) [I-108] it was 6.94. On to `O=C(NCC#Cc1ccc2nccc(OCC3CCCOC3)c2c1)c1cccn(Cc2ccc(F)c(F)c2)c1=O` (stereo not shown) [I-125.8], for which the pIC50 was 7.34.

As to `CNc1ncnc2ccc(C#CCNC(=O)c3cccn([C@@H](C)c4ccc(F)c(F)c4)c3=O)cc12` [II-60], the pIC50 is 8.10. As for `NC(=O)[C@@H](Cc1ccccc1)Nc1ncnc2ccc(C#CCNC(=O)c3cncn(Cc4ccc(F)c(F)c4)c3=O)cc12` [II-17], the pIC50 was 6.31. In the case of `CN(C)C1CCN(c2ncnc3ccc(C#CCNC(=O)c4cccn(Cc5ccc(F)c(F)c5)c4=O)cc23)CC1` [II-40] it was 7.13; in that of `O=C(NCC#Cc1ccc2ncc(N[C@H]3CC[C@H](N4CCN(CC5CC5)CC4)CC3)nc2c1)c1cccn([C@H](CO)c2cccc(F)c2)c1=O` [I-61], 8.70; in that of `CNCCCN(C)c1ncnc2ccc(C#CCNC(=O)c3cccn(Cc4ccc(F)c(F)c4)c3=O)cc12` [II-28], 6.96.

As to `O=C(NCC#Cc1ccc2ncc(N[C@H]3CC[C@H](N4CCN(CC5CC5)CC4)CC3)nc2c1)c1ccnn(Cc2ccc(F)c(F)c2)c1=O` [I-62], the pIC50 is 8.70. Take `CCN(CC)c1ncnc2ccc(C#CCNC(=O)c3cc(Cl)nn(Cc4ccc(F)c(F)c4)c3=O)cc12` [II-43]: the pIC50 is 8.10.

Take `Cc1c(C#CCNC(=O)c2cncn(Cc3ccc(F)c(F)c3)c2=O)ccc2ncc(-c3ccccc3)cc12` [I-79]: the pIC50 was 7.10. Consider `CN1CCC(Cc2cnc3ccc(C#CCNC(=O)c4cncn(Cc5ccc(F)c(F)c5)c4=O)cc3n2)CC1` [I-67], for which the pIC50 is 6.03. In the case of `Cc1ccnc2ccc(C#CCNC(=O)c3cncn(Cc4ccc(F)c(F)c4)c3=O)cc12` [II-92] it was 7.25. The value for `CN(C)CCNc1ncnc2ccc(C#CCNC(=O)c3cncn(Cc4ccc(F)c(F)c4)c3=O)cc12` [II-10] was 6.64; that for `O=C(NCC#Cc1ccc2nccc(OC[C@@H]3CCCN(CCN4CCOCC4)C3)c2c1)c1cccn(Cc2cc(F)c(F)c(F)c2)c1=O` [I-125.19] was 8.52; that for `CN(Cc1ccccc1)c1c(C#N)cnc2ccc(C#CCNC(=O)c3cccn(Cc4ccc(F)c(F)c4)c3=O)cc12` [II-98] was 6.74. The value for `CC1(CNc2ncnc3ccc(C#CCNC(=O)c4cccn(Cc5ccc(F)c(F)c5)c4=O)cc23)COC1` [II-36] was 6.33; that for `O=C(NCC#Cc1ccc2ncc(N[C@H]3CC[C@H](N4CCOCC4)CC3)nc2c1)c1cccn([C@H](CO)c2ccccc2)c1=O` [I-59] was 8.30. Consider `CN1CCC(N(C)c2cnc3ccc(C#CCNC(=O)c4cncn(Cc5ccc(F)c(F)c5)c4=O)cc3n2)CC1` [I-28], for which the pIC50 is 7.68. In the case of `CC(C)(C)COc1ccnc2ccc(C#CCNC(=O)c3cccn(C(CO)c4ccc(F)c(F)c4)c3=O)cc12` (stereo not shown) [I-125.14] it was 7.22; in that of `CN(C)CCCN(C)C(=O)c1cnc2ccc(C#CCNC(=O)c3cncn(Cc4ccc(F)c(F)c4)c3=O)cc2c1` [II-79], 6.70. The value for `O=C(NCC#Cc1ccc2ncc(C(=O)N3CCNCC3)cc2c1)c1cncn(Cc2ccc(F)c(F)c2)c1=O` [II-83] was 6.54; that for `CONc1ncnc2ccc(C#CCNC(=O)c3cncn(Cc4ccc(F)c(F)c4)c3=O)cc12` [II-61] was 7.24; that for `O=C(NCC#Cc1ccc2nccc(-c3cn[nH]c3)c2c1)c1cncn(Cc2ccc(F)c(F)c2)c1=O` [II-89] was 7.46. In the case of `CCN1CCC(Nc2cnc3ccc(C#CCNC(=O)c4cccn([C@@H](C)c5ccc(F)c(F)c5)c4=O)cc3c2)CC1` [I-75] it was 9.00. `CC(C)NC(=O)c1cnc2ccc(C#CCNC(=O)c3cncn(Cc4ccc(F)c(F)c4)c3=O)cc2c1` [II-77]: the pIC50 was 7.28. In the case of `CCOc1ccnc2ccc(C#CCNC(=O)c3cccn(Cc4ccc(F)c(F)c4)c3=O)cc12` [I-94] it was 7.26; in that of `O=C(NCC#Cc1ccc2ncc(NC3CCCCC3)nc2c1)c1cncn(Cc2ccc(F)c(F)c2)c1=O` [I-26], 6.23; in that of `CN(C)CCCOc1ccnc2ccc(C#CCNC(=O)c3cccn(Cc4ccc(F)c(F)c4)c3=O)cc12` [I-93], 7.92.

`CC(CNc1ncnc2ccc(C#CCNC(=O)c3cncn(Cc4ccc(F)c(F)c4)c3=O)cc12)c1ccccc1` (stereo not shown) [II-15]: the pIC50 was 6.35.

As for `COCCN1CCC(Nc2cnc3ccc(C#CCNC(=O)c4cccn([C@@H](C)c5ccc(F)c(F)c5)c4=O)cc3n2)CC1` [I-52], the pIC50 is 8.40. In the case of `CC(c1cc(F)c(F)c(F)c1)n1cccc(C(=O)NCC#Cc2ccc3nccc(OC[C@@H]4CCCN(C)C4)c3c2)c1=O` (stereo partly shown) [I-125.18] it was 8.70; in that of `O=C(NCC#Cc1ccc2ncc(N[C@H]3CC[C@H](O)CC3)nc2c1)c1cncn(Cc2ccc(F)c(F)c2)c1=O` [I-39], 7.68. The value for `CN(CCCO)c1ncnc2ccc(C#CCNC(=O)c3cccn(Cc4ccc(F)c(F)c4)c3=O)cc12` [II-34] was 7.23; that for `CN(c1ncnc2ccc(C#CCNC(=O)c3cncn(Cc4ccc(F)c(F)c4)c3=O)cc12)C1CC1` [II-20] was 7.89; that for `CN(C)CCCOc1ncnc2ccc(C#CCNC(=O)c3cncn(Cc4ccc(F)c(F)c4)c3=O)cc12` [I-8] was 6.99. The value for `NC(=O)CNc1ncnc2ccc(C#CCNC(=O)c3cccn(Cc4ccc(F)c(F)c4)c3=O)cc12` [II-35] was 7.23; that for `CCN1CCC(Nc2cnc3ccc(C#CCNC(=O)c4cccn([C@@H](CO)c5ccc(F)c(F)c5)c4=O)cc3n2)CC1` [I-50] was 9.00; that for `CN(C)c1ncnc2ccc(C#CCNC(=O)c3cccn(Cc4cc[nH]n4)c3=O)cc12` [II-42] was 6.16. As to `O=C(NCC#Cc1ccc2ncc(NC3CCN(C4COC4)CC3)nc2c1)c1cccn(Cc2ccc(F)c(F)c2)c1=O` [I-57], the pIC50 was 8.05. In the case of `O=C(NCC#Cc1ccc2nccc(OC[C@@H]3CCCNC3)c2c1)c1cccn(Cc2ccc(F)c(F)c2)c1=O` [I-125.23] it was 8.40; in that of `CN1CCC(Nc2cnc3ccc(C#CCNC(=O)c4cccn(Cc5ccc(F)c(F)c5)c4=O)cc3n2)CC1` [I-31], 8.30. Consider `CN(C)CCCN(C)c1ccnc2ccc(C#CCNC(=O)c3cncn(Cc4ccc(F)c(F)c4)c3=O)cc12` [I-89], for which the pIC50 is 7.64. As to `CCN1CCC(Nc2cnc3ccc(C#CCNC(=O)c4cccn(Cc5ccc(F)c(F)c5)c4=O)cc3c2)CC1` [I-72], the pIC50 was 8.70.
